Assay results taken from patent publication US7612099B2, “Vinylogous acid derivatives” (Hoffmann-La Roche Inc., priority 2005, dated 2009).

Target: T1, Chymase purified form human skin mast cells (Homo sapiens, UniProt P23946)
T1 construct: Chymase purified form human skin mast cells was obtained from Calbiochem; purchased Calbiochem (Merck Biosciences, San Diego, Calif., USA); host or cells: human skin mast cells (tissue-derived, not recombinant)
T1 sequence (P23946 22-247): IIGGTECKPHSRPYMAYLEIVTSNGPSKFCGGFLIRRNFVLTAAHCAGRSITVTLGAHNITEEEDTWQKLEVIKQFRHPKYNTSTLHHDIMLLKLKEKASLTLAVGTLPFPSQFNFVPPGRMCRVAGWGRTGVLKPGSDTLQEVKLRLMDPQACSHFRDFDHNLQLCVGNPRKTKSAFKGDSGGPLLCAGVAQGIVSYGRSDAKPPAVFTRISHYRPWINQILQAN
Assay: chymase peptide substrate assay (AAPF-AMC fluorescence)
Format: biochemical
Conditions: 0.02 mM AAPF-substrate, 1 nM Chymase, pH 7.4, room temperature, 30 min pre-incubation
Description: The peptide was synthesized with a purity of 95% from Bachem, Bubendorf, Switzerland). Chymase purified form human skin mast cells was obtained from Calbiochem (Merck Biosciences, San Diego, Calif., USA). The assay buffer was 0.15 M NaCl, 0.05M, Tris HCl, 0.05% CHAPS (3-[(3-Cholamidopropyl)-dimethylammonio]-1-propane sulphonate), 0.1 mg/ml Heparin (Heparin sodium, Sigma, porcine intestinal mucosa), 0.02 mM AAPF-substrate, 1 nM Chymase at pH 7.4. The assay was performed in 96-well plates (Packard Optiplate), with a 0.05 ml volume at room temperature. Chymase activity was indicated by the initial rate of increase in fluorescence at 340/440 nm (excitation/emission) from free 7-amino-4-methylcoumarin released from the substrate. Inhibition of the activity by inhibitory compounds was read after 30 min pre-incubation with the chymase at room temperature in assay buffer without AAPF-substrate. The assay was then started by addition of the indicated concentration of AAPF-substrate.

IC50 [nM] | SMILES
13 | Cc1c(C(C2=C(O)C(C(C)C)N(C)C2=O)c2ccccc2)[nH]c2ccc(F)cc12 (stereo not shown) [Example 11, 3-[(5-Fluoro-3-methyl-1H-indol-2-yl)-phenyl-methyl]-4-hydroxy-5-isopropyl-1-methyl-1,5-dihydro-pyrrol-2-one]
24 | CC(=O)NCCc1c(C(C2=C(O)C(Cc3ccccc3)OC2=O)c2ccccc2)[nH]c2cc(F)ccc12 (stereo not shown) [Example 16, N-(2-{2-[(5-Benzyl-4-hydroxy-2-oxo-2,5-dihydro-furan-3-yl)-phenyl-methyl]-6-fluoro-1H-indol-3-yl}-ethyl)-acetamide]
3 | CC(=O)NCCc1c(C(C2=C(O)C(c3ccccc3)CC2=O)c2ccccc2)[nH]c2cc(F)ccc12 (stereo not shown) [Example 43, N-(2-{6-Fluoro-2-[(2-hydroxy-5-oxo-3-phenyl-cyclopent-1-enyl)-phenyl-methyl]-1H-indol-3-yl}-ethyl)-acetamide]
10 | CC(=O)NCc1c(C(C2=C(O)[C@@](C)(c3ccccc3)NC2=O)c2ccccc2)[nH]c2cc(C)ccc12 (stereo partly drawn) [Example 63, N-{2-[((R)-4-Hydroxy-5-methyl-2-oxo-5-phenyl-2,5-dihydro-1H-pyrrol-3-yl)-phenyl-methyl]-6-methyl-1H-indol-3-ylmethyl}-acetamide]
5 | Cc1c(C(C2=C(O)[C@@](C)(c3ccccc3)NC2=O)c2ccccc2)[nH]c2ccc(F)cc12 (stereo partly drawn) [Example 67, (R)-3-[(5-Fluoro-3-methyl-1H-indol-2-yl)-phenyl-methyl]-4-hydroxy-5-methyl-5-phenyl-1,5-dihydro-pyrrol-2-one]
15 | CC(=O)NCc1c(C(C2=C(O)[C@@](C)(c3ccccc3)OC2=O)c2ccccc2)[nH]c2cc(C)ccc12 (stereo partly drawn) [Example 72, N-{2-[((R)-4-Hydroxy-5-methyl-2-oxo-5-phenyl-2,5-dihydro-furan-3-yl)-phenyl-methyl]-6-methyl-1H-indol-3-ylmethyl}-acetamide]
2 | Cc1c(C(C2=C(O)C(c3ccccc3)CC2=O)c2ccccc2)[nH]c2ccc(F)cc12 (stereo not shown) [Example 79, 2-[(5-Fluoro-3-methyl-1H-indol-2-yl)-phenyl-methyl]-3-hydroxy-4-phenyl-cyclopent-2-enone]
